Measured values taken from patent US20220411380A1, “ACID ADDITION SALT OF RORy REGULATOR” (JIANGSU HENGRUI MEDICINE CO., LTD., priority 2019, published 2022).

Key:
Format in all cases: physicochemical
[1] = DVS (dynamic vapor sorption) characterization; settings: for Crystalline form before and after DVS (XRPD comparison): 0-95% humidity change; for DVS weight change / Hygroscopicity: 25° C., 20.0% RH to 80.0% RH; for Hygroscopicity: DVS
Experimental: DVS refers to dynamic vapor sorption: The measurement was conducted with a Surface Measurement Systems advantage 2 at 25° C., starting from 50% humidity in humidity range of 0%-95% with a step size of 10%. The judging criterion was that the mass change of each gradient dM/dT is less than 0.002 and TMAX is less than 360 min in two circles.

[2] = Long-term/accelerated stability study of crystalline form α of hydrochloride and crystalline form I of hydrobromide
Experimental: The crystalline form α of the hydrochloride of the compound of formula II was let stand in conditions of 25° C./60% RH and 40° C./75% RH to examine its stability.
The crystalline form I of the hydrobromide of the compound of formula II was let stand in conditions of 25° C./60% RH and 40° C./75% RH to examine its stability.

[3] = Influencing factor study of crystalline form α of hydrochloride and crystalline form I of hydrobromide
Experimental: Sample of the crystalline form α of the hydrochloride and the crystalline form I of the hydrobromide of the compound of formula II were let stand open to examine the stability of the samples in conditions of illumination (4500 Lux), high temperature (40° C. and 60° C.) and high humidity (RH 75% and RH 92.5%) in a period of 30 days.

[4] = accelerated test condition, 70% humidity
[5] = extreme condition, 90% humidity
[6] = normal storage condition, 60% humidity/25° C.

NC(=O)C[C@H](c1ccc(S(=O)(=O)CC2CC2)cc1)c1nc2cc(-c3ccccc3OC(F)F)c(Cl)cc2[nH]1.O=C(O)/C=C\C(=O)O
Crystalline form before and after DVS (XRPD comparison) [1]: crystalline form did not change during DVS
DVS weight change [1]: 1.731%
Hygroscopicity [1]: slightly hygroscopic
Vapor sorption [1, 4]: about 1.809%
Vapor sorption [1, 5]: about 3.077%
Vapor sorption [1, 6]: about 1.438%

Br.NC(=O)C[C@H](c1ccc(S(=O)(=O)CC2CC2)cc1)c1nc2cc(-c3ccccc3OC(F)F)c(Cl)cc2[nH]1
Crystalline form before and after DVS (XRPD comparison) [1]: crystalline form did not change during DVS
DVS weight change [1]: 0.636%
Hygroscopicity [1]: slightly hygroscopic
Vapor sorption [1, 4]: about 0.702%
Vapor sorption [1, 5]: about 1.094%
Vapor sorption [1, 6]: about 0.589%
Chiral purity (%) ([2]; 25° C., 60% RH, Day 7): 99.297%
Color and appearance ([2]; 25° C., 60% RH, Day 7): White solid
Crystalline form ([2]; 25° C., 60% RH, Day 7): Not changed
Main peak purity (%) ([2]; 25° C., 60% RH, Day 7): 97.689%
Chiral purity (%) ([2]; 25° C., 60% RH, Day 14): 99.198%
Color and appearance ([2]; 25° C., 60% RH, Day 14): White solid
Crystalline form ([2]; 25° C., 60% RH, Day 14): Not changed
Main peak purity (%) ([2]; 25° C., 60% RH, Day 14): 97.697%
Bromide ion content (%) ([2]; 25° C., 60% RH, Month 1): 11.20%
Chiral purity (%) ([2]; 25° C., 60% RH, Month 1): 99.255%
Color and appearance ([2]; 25° C., 60% RH, Month 1): White solid
Crystalline form ([2]; 25° C., 60% RH, Month 1): Not changed
Main peak purity (%) ([2]; 25° C., 60% RH, Month 1): 97.649%
Bromide ion content (%) ([2]; 25° C., 60% RH, Month 2): 11.05%
Chiral purity (%) ([2]; 25° C., 60% RH, Month 2): 99.363%
Color and appearance ([2]; 25° C., 60% RH, Month 2): White solid
Crystalline form ([2]; 25° C., 60% RH, Month 2): Not changed
Main peak purity (%) ([2]; 25° C., 60% RH, Month 2): 97.661%
Chiral purity (%) ([2]; 25° C., 60% RH, Month 3): 99.283%
Color and appearance ([2]; 25° C., 60% RH, Month 3): White solid
Crystalline form ([2]; 25° C., 60% RH, Month 3): Not changed
Main peak purity (%) ([2]; 25° C., 60% RH, Month 3): 97.552%
Bromide ion content (%) ([2]; 25° C., 60% RH, Month 6): 11.82%
Chiral purity (%) ([2]; 25° C., 60% RH, Month 6): 99.228%
Color and appearance ([2]; 25° C., 60% RH, Month 6): White solid
Crystalline form ([2]; 25° C., 60% RH, Month 6): Not changed
Main peak purity (%) ([2]; 25° C., 60% RH, Month 6): 96.981%
Chiral purity (%) ([2]; 40° C., 75% RH, Day 7): 99.295%
Color and appearance ([2]; 40° C., 75% RH, Day 7): White solid
Crystalline form ([2]; 40° C., 75% RH, Day 7): Not changed
Main peak purity (%) ([2]; 40° C., 75% RH, Day 7): 97.661%
Chiral purity (%) ([2]; 40° C., 75% RH, Day 14): 99.174%
Color and appearance ([2]; 40° C., 75% RH, Day 14): White solid
Crystalline form ([2]; 40° C., 75% RH, Day 14): Not changed
Main peak purity (%) ([2]; 40° C., 75% RH, Day 14): 97.660%
Bromide ion content (%) ([2]; 40° C., 75% RH, Month 1): 11.49%
Chiral purity (%) ([2]; 40° C., 75% RH, Month 1): 99.262%
Color and appearance ([2]; 40° C., 75% RH, Month 1): White solid
Crystalline form ([2]; 40° C., 75% RH, Month 1): Not changed
Main peak purity (%) ([2]; 40° C., 75% RH, Month 1): 97.558%
Bromide ion content (%) ([2]; 40° C., 75% RH, Month 2): 10.93%
Chiral purity (%) ([2]; 40° C., 75% RH, Month 2): 99.328%
Color and appearance ([2]; 40° C., 75% RH, Month 2): White solid
Crystalline form ([2]; 40° C., 75% RH, Month 2): Not changed
Main peak purity (%) ([2]; 40° C., 75% RH, Month 2): 97.561%
Chiral purity (%) ([2]; 40° C., 75% RH, Month 3): 99.275%
Color and appearance ([2]; 40° C., 75% RH, Month 3): White solid
Crystalline form ([2]; 40° C., 75% RH, Month 3): Not changed
Main peak purity (%) ([2]; 40° C., 75% RH, Month 3): 97.259%
Bromide ion content (%) ([2]; 40° C., 75% RH, Month 6): 11.91%
Chiral purity (%) ([2]; 40° C., 75% RH, Month 6): 99.199%
Color and appearance ([2]; 40° C., 75% RH, Month 6): White solid
Crystalline form ([2]; 40° C., 75% RH, Month 6): Not changed
Main peak purity (%) ([2]; 40° C., 75% RH, Month 6): 96.412%
Bromide ion content (%) ([2]; Initial, 0): 11.75%
Chiral purity (%) ([2]; Initial, 0): 99.298%
Color and appearance ([2]; Initial, 0): White solid
Crystalline form ([2]; Initial, 0): Crystalline
Main peak purity (%) ([2]; Initial, 0): 97.689%
Stability (conclusion of long-term/accelerated study) ([2]; long term and acceleration, 6 months): good physical and chemical stability
Chiral purity (%) ([3]; 40° C., 7 days): 99.293%
Color and appearance ([3]; 40° C., 7 days): White solid
Crystalline form ([3]; 40° C., 7 days): Not changed
Main peak purity (%) ([3]; 40° C., 7 days): 97.716%
Chiral purity (%) ([3]; 40° C., 14 days): 99.165%
Color and appearance ([3]; 40° C., 14 days): White solid
Crystalline form ([3]; 40° C., 14 days): Not changed
Main peak purity (%) ([3]; 40° C., 14 days): 97.727%
Bromide ion content (%) ([3]; 40° C., 30 days): 11.73%
Chiral purity (%) ([3]; 40° C., 30 days): 99.251%
Color and appearance ([3]; 40° C., 30 days): White solid
Crystalline form ([3]; 40° C., 30 days): Not changed
Main peak purity (%) ([3]; 40° C., 30 days): 97.644%
Chiral purity (%) ([3]; 60° C., 7 days): 99.299%
Color and appearance ([3]; 60° C., 7 days): White solid
Crystalline form ([3]; 60° C., 7 days): Not changed
Main peak purity (%) ([3]; 60° C., 7 days): 97.645%
Chiral purity (%) ([3]; 60° C., 14 days): 99.187%
Color and appearance ([3]; 60° C., 14 days): White solid
Crystalline form ([3]; 60° C., 14 days): Not changed
Main peak purity (%) ([3]; 60° C., 14 days): 97.671%
Bromide ion content (%) ([3]; 60° C., 30 days): 11.50%
Chiral purity (%) ([3]; 60° C., 30 days): 99.263%
Color and appearance ([3]; 60° C., 30 days): White solid
Crystalline form ([3]; 60° C., 30 days): Not changed
Main peak purity (%) ([3]; 60° C., 30 days): 97.630%
Chiral purity (%) ([3]; 75% RH, 7 days): 99.293%
Color and appearance ([3]; 75% RH, 7 days): White solid
Crystalline form ([3]; 75% RH, 7 days): Not changed
Main peak purity (%) ([3]; 75% RH, 7 days): 97.687%
Chiral purity (%) ([3]; 75% RH, 14 days): 99.179%
Color and appearance ([3]; 75% RH, 14 days): White solid
Crystalline form ([3]; 75% RH, 14 days): Not changed
Main peak purity (%) ([3]; 75% RH, 14 days): 97.705%
Bromide ion content (%) ([3]; 75% RH, 30 days): 11.73%
Chiral purity (%) ([3]; 75% RH, 30 days): 99.274%
Color and appearance ([3]; 75% RH, 30 days): White solid
Crystalline form ([3]; 75% RH, 30 days): Not changed
Main peak purity (%) ([3]; 75% RH, 30 days): 97.676%
Chiral purity (%) ([3]; 92.5% RH, 7 days): 99.294%
Color and appearance ([3]; 92.5% RH, 7 days): White solid
Crystalline form ([3]; 92.5% RH, 7 days): Not changed
Main peak purity (%) ([3]; 92.5% RH, 7 days): 97.706%
Chiral purity (%) ([3]; 92.5% RH, 14 days): 99.175%
Color and appearance ([3]; 92.5% RH, 14 days): White solid
Crystalline form ([3]; 92.5% RH, 14 days): Not changed
Main peak purity (%) ([3]; 92.5% RH, 14 days): 97.701%
Bromide ion content (%) ([3]; 92.5% RH, 30 days): 11.55%
Chiral purity (%) ([3]; 92.5% RH, 30 days): 99.268%
Color and appearance ([3]; 92.5% RH, 30 days): White solid
Crystalline form ([3]; 92.5% RH, 30 days): Not changed
Main peak purity (%) ([3]; 92.5% RH, 30 days): 97.653%
Chiral purity (%) ([3]; 4500 Lux, 7 days): 99.297%
Color and appearance ([3]; 4500 Lux, 7 days): White solid
Crystalline form ([3]; 4500 Lux, 7 days): Not changed
Main peak purity (%) ([3]; 4500 Lux, 7 days): 97.683%
Chiral purity (%) ([3]; 4500 Lux, 14 days): 99.152%
Color and appearance ([3]; 4500 Lux, 14 days): White solid
Crystalline form ([3]; 4500 Lux, 14 days): Not changed
Main peak purity (%) ([3]; 4500 Lux, 14 days): 97.660%
Bromide ion content (%) ([3]; 4500 Lux, 30 days): 11.18%
Chiral purity (%) ([3]; 4500 Lux, 30 days): 99.243%
Color and appearance ([3]; 4500 Lux, 30 days): White solid
Crystalline form ([3]; 4500 Lux, 30 days): Not changed
Main peak purity (%) ([3]; 4500 Lux, 30 days): 97.626%
Bromide ion content (%) ([3]; Initial, 0 days): 11.75%
Chiral purity (%) ([3]; Initial, 0 days): 99.298%
Color and appearance ([3]; Initial, 0 days): White solid
Crystalline form ([3]; Initial, 0 days): Crystalline
Main peak purity (%) ([3]; Initial, 0 days): 97.689%
Stability (conclusion of influencing factor study) ([3]; illumination, 40° C. and 60° C., high humidities of 75% and 92.5%): good physical and chemical stabilities

Cl.NC(=O)C[C@H](c1ccc(S(=O)(=O)CC2CC2)cc1)c1nc2cc(-c3ccccc3OC(F)F)c(Cl)cc2[nH]1 [Crystalline form β of hydrochloride of compound of formula I]
Crystalline form before and after DVS (XRPD comparison) [1]: crystalline form changed during DVS
DVS weight change [1]: 1.235%
Hygroscopicity [1]: slightly hygroscopic
Vapor sorption [1, 4]: about 1.954%
Vapor sorption [1, 5]: about 2.534%
Vapor sorption [1, 6]: about 1.755%
